These results are taken from patent US20240093198A1, “TGF-BETA THERAPEUTICS FOR AGE DISEASE” (GMP BIOTECHNOLOGY LIMITED, priority 2021, published 2024).

In one data set the test system is SARS-COV-2. Particulars: from Wang M et al., Cell Res. 2020; cited from earlier work.
Data set [1] concerns SARS-COV-2 USA_WA1/2020. Particulars: Vero 76 cells.
Another data set in a line: in vitro. Particulars: African green monkey.
In data set [2] the test system is SARS-COV-2 USA_WA1/2020. The data set is described as follows: microbe, parasite or virus in culture. Particulars: Severe acute respiratory syndrome coronavirus 2, Vero 76, read-out: EC50: 50% effective antiviral concentration.
The mark [3] stands for this setting: by day 28, p<0.0001, not with SOC alone.

The structures appear in SMILES notation. Values after ≈ are worked out from the molar mass of the structure shown.

`CCC(CC)COC(=O)[C@H](C)N[P@](=O)(OC[C@H]1O[C@@](C#N)(c2ccc3c(N)ncnn23)[C@H](O)[C@@H]1O)Oc1ccccc1` [Remdesivir]: in the data set with SARS-COV-2, the CC50 is more than 100 µM.
Take `C[C@@H]1CC[C@H]2[C@@H](C)C(=O)O[C@@H]3O[C@@]4(C)CC[C@@H]1[C@]32OO4` [Artemisinin]: in the data set on SARS-COV-2 USA_WA1/2020 [1], the “SI = CC50/EC50 (Safety Index)” value was 140. For the same compound, in the data set with COVID-19 (80 patients on Artemisinin), the Safety profile entry was “very favorable safety profile”. Moreover, the WHO severity scale entry in the data set on COVID-19 (Day 4 and Day 5, p=0.0045 and p=0.0370) is listed as “significant improvement over SOC”. In the data set with COVID-19 (added to the SOC), the “Recovery of patients with mild-moderate COVID-19 across symptoms (fever, sore throat, dry cough, ache)” value is recorded as “accelerated the recovery”. Besides, in the data set on COVID-19 (by day 2), the “Decline in body temperature in comparison to SOC arm” value was “faster and higher”. Further, the “Improvement in respiratory rate in comparison to SOC arm” value in the data set with COVID-19 (by day 5) was “faster and higher”. The “Improvement in mean SpO2 level in comparison to SOC arm” value in the data set with COVID-19 (by day 28 (end of study), p=0.029) was “significantly higher”. Also, in the data set on COVID-19 (setting [3]), the O2 sat result is on record as “fully recovered” and the respiratory rate result is on record as “fully recovered”. Also, in the data set with COVID-19 (human, in vivo), the “Artemisinin-related adverse events (the only ones)” value is “transient mild rash and mild hypertension”; the “Changes in biochemistry or hematology parameters” value is “no clinically significant changes”; the Efficacy in words result is “effective in treating subjects with mild and moderate COVID-19”; the Safety and tolerability result was “safe and well-tolerated”. The “Reduction of WHO score on the first few doses” value with COVID-19 (p=0.0043, n=56 PulmoHeal+SOC vs n=25 SOC) is listed as “Almost all of WHO-4 patients achieved a reduction WHO-3”. The “Long term lung functions (FIG. 4)” value with COVID-19 (patients with confirmed SARS-CoV-2 infection) is “restored long term lung functions”. Besides, the CC50 in “in vitro” is 61 µg/mL (≈ 216 µM). Also, in the data set on SARS-COV-2 USA_WA1/2020 [2], the EC50 was determined as 0.45 µg/mL (≈ 1.59 µM).
